pIC50: −log10 of the molar value. Blank lines part the entries; values can stand above or below the compound they belong to.
Legend:
[1] = molecular target: T1, Phosphatidylinositol 4,5-bisphosphate 3-kinase catalytic subunit delta isoform (Homo sapiens, UniProt O00329); test: Inhibition of PI3Kdelta (unknown origin) by ADP Glo luminescent assay
T1 sequence (O00329 whole entry): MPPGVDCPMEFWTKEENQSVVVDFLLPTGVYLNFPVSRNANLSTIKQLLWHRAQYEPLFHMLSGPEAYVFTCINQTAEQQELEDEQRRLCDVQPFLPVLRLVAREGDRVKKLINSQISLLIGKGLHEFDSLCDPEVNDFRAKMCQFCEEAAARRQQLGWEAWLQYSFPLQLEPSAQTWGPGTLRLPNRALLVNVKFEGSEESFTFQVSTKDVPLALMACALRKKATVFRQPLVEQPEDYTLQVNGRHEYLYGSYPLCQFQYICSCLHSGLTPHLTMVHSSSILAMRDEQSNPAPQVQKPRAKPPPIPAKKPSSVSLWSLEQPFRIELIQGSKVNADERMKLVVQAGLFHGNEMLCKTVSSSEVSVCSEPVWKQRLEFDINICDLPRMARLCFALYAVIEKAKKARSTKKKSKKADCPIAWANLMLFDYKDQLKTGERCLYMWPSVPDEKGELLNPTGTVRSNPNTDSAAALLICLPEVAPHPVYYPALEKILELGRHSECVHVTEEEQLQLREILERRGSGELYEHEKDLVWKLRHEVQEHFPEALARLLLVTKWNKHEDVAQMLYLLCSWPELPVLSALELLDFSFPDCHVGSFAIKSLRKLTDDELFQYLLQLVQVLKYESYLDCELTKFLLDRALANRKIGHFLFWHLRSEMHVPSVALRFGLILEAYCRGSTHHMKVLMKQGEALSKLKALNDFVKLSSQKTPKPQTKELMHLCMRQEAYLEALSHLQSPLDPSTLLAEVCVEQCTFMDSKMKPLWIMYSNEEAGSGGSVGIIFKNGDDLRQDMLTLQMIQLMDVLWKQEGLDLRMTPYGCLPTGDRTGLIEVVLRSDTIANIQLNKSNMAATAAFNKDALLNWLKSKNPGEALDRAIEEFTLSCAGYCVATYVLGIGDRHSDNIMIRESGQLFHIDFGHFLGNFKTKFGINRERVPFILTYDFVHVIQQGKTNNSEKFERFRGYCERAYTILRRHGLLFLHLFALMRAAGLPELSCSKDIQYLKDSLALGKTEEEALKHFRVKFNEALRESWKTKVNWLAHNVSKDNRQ

EOL1 = test: Antiproliferative activity against human EOL1 cells assessed as inhibition of cell growth; type: functional, cell-based
MV4-11 [2] = test: Antiproliferative activity against human MV4-11 cells assessed as inhibition of cell growth; type: functional, cell-based
[3] = Antiproliferative activity against human MOLM16 cells assessed as inhibition of cell growth; type: functional, cell-based, MOLM-16
HL-60 = test: Antiproliferative activity against human HL-60 cells assessed as inhibition of cell growth; type: functional, cell-based
KG-1 = test: Antiproliferative activity against human KG-1 cells assessed as inhibition of cell growth; type: functional, cell-based
Homo sapiens [4] = species on record: Homo sapiens; test: Selectivity index, ratio of IC50 for inhibition of PI3Kbeta (unknown origin) to IC50 for inhibition of PI3Kdelta (unknown origin) by ADP Glo luminescent assay
MV4-11 [5] = test: Induction of apoptosis in human MV4-11 cells assessed as viable cells at 10 uM incubated for 48 hrs by Annexin V/PI staining based flow cytometric analysis (reference value: […]); type: functional; conditions: read-out: Activity
MV4-11 [6] = test: Induction of apoptosis in human MV4-11 cells assessed as viable cells at 3 uM incubated for 48 hrs by Annexin V/PI staining based flow cytometric analysis (reference value: […]); type: functional; conditions: read-out: Activity
MV4-11 [7] = test: Induction of apoptosis in human MV4-11 cells assessed as early apoptotic cells at 5 uM incubated for 48 hrs by Annexin V/PI staining based flow cytometric analysis (reference value: 1.57%); type: functional
MV4-11 [8] = test: Induction of apoptosis in human MV4-11 cells assessed as early apoptotic cells at 1 uM incubated for 48 hrs by Annexin V/PI staining based flow cytometric analysis (reference value: 1.57%); type: functional
Homo sapiens [9] = species on record: Homo sapiens; test: Selectivity index, ratio of IC50 for inhibition of PI3Kalpha (unknown origin) to IC50 for inhibition of PI3Kdelta (unknown origin) by ADP Glo luminescent assay
MV4-11 [10] = test: Induction of apoptosis in human MV4-11 cells assessed as late apoptotic cells at 5 uM incubated for 48 hrs by Annexin V/PI staining based flow cytometric analysis (reference value: 2.82%); type: functional
Homo sapiens [11] = species on record: Homo sapiens; test: Selectivity index, ratio of IC50 for inhibition of PI3Kgamma (unknown origin) to IC50 for inhibition of PI3Kdelta (unknown origin) by ADP Glo luminescent assay
MV4-11 [12] = test: Induction of apoptosis in human MV4-11 cells assessed as necrotic cells at 10 uM incubated for 48 hrs by Annexin V/PI staining based flow cytometric analysis (reference value: 0.060%); type: functional
MV4-11 [13] = test: Induction of apoptosis in human MV4-11 cells assessed as late apoptotic cells at 10 uM incubated for 48 hrs by Annexin V/PI staining based flow cytometric analysis (reference value: 2.82%); type: functional
MV4-11 [14] = test: Induction of apoptosis in human MV4-11 cells assessed as total apoptotic cells at 1 to 10 uM incubated for 48 hrs by Annexin V/PI staining based flow cytometric analysis (reference value: 4.39%); type: functional; conditions: dose 1-10 µM
[15] = molecular target: Phosphatidylinositol 4,5-bisphosphate 3-kinase catalytic subunit gamma isoform (Homo sapiens, UniProt P48736); test: Inhibition of PI3Kgamma (unknown origin)
Phosphatidylinositol 4,5-bisphosphate 3-kinase catalytic subunit gamma isoform, sequence (P48736 whole entry, canonical isoform): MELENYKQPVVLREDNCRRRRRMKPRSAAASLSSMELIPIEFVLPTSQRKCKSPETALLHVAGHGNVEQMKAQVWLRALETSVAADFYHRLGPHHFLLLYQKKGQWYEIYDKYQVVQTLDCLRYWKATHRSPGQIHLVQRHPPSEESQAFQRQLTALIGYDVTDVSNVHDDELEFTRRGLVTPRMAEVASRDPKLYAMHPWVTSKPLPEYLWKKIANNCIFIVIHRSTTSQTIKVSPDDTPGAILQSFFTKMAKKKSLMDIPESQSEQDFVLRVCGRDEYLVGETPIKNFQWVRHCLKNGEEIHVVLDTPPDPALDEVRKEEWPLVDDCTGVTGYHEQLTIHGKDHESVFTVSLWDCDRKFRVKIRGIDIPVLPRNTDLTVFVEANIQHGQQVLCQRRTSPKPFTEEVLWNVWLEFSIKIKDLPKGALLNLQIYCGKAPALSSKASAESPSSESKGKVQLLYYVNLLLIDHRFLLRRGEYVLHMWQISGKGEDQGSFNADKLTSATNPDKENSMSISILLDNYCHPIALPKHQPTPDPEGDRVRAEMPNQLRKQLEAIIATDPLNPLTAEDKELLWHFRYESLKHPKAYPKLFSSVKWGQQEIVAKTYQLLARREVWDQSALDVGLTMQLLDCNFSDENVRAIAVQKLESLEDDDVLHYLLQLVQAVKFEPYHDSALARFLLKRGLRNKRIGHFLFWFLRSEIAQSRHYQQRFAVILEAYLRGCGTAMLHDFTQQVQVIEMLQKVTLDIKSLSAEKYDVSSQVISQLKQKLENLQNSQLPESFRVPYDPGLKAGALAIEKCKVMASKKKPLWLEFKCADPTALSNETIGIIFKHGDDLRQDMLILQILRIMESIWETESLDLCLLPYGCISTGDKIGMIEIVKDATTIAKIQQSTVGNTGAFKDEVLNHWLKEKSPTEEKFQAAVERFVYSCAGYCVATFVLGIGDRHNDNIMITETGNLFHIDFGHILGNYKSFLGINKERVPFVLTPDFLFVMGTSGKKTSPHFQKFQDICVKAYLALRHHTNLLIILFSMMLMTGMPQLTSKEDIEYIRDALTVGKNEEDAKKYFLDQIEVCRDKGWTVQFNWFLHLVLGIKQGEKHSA

MV4-11 [16] = test: Induction of apoptosis in human MV4-11 cells assessed as early apoptotic cells at 10 uM incubated for 48 hrs by Annexin V/PI staining based flow cytometric analysis (reference value: 1.57%); type: functional
[17] = molecular target: Phosphatidylinositol 4,5-bisphosphate 3-kinase catalytic subunit beta isoform (Homo sapiens, UniProt P42338); test: Inhibition of PI3Kbeta (unknown origin)
Phosphatidylinositol 4,5-bisphosphate 3-kinase catalytic subunit beta isoform, sequence (P42338 whole entry, canonical isoform): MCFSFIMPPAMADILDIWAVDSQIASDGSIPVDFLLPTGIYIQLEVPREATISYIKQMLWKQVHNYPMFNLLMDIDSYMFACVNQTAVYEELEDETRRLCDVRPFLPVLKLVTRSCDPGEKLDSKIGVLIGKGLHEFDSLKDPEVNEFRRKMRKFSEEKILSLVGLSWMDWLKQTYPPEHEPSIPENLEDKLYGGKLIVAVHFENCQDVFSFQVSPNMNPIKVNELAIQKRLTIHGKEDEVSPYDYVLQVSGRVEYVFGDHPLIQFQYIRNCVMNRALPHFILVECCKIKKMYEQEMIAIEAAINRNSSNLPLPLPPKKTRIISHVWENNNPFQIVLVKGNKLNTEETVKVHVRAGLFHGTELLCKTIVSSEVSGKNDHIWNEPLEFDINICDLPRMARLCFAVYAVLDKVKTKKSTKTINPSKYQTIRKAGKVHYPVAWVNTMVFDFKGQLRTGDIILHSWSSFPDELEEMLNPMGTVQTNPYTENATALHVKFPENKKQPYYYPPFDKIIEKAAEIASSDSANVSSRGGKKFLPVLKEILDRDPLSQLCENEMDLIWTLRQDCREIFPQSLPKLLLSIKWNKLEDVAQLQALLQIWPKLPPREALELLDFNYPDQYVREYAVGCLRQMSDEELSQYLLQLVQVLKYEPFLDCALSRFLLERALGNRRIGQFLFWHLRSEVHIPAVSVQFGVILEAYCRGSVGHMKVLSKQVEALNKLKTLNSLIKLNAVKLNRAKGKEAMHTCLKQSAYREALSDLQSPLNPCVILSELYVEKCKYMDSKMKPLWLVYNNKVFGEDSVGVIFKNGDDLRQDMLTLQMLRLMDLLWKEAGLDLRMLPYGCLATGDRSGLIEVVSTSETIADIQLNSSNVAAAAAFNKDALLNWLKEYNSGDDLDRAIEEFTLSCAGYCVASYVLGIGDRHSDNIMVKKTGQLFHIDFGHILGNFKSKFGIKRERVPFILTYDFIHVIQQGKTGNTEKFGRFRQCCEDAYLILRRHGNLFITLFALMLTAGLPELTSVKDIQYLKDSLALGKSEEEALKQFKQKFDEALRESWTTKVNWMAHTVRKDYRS

MV4-11 [18] = test: Induction of apoptosis in human MV4-11 cells assessed as necrotic cells at 1 uM incubated for 48 hrs by Annexin V/PI staining based flow cytometric analysis (reference value: 0.060%); type: functional
MV4-11 [19] = test: Induction of apoptosis in human MV4-11 cells assessed as early apoptotic cells at 3 uM incubated for 48 hrs by Annexin V/PI staining based flow cytometric analysis (reference value: 1.57%); type: functional
MV4-11 [20] = test: Induction of apoptosis in human MV4-11 cells assessed as late apoptotic cells at 3 uM incubated for 48 hrs by Annexin V/PI staining based flow cytometric analysis (reference value: 2.82%); type: functional
MV4-11 [21] = test: Cell cycle arrest in human MV4-11 cells assessed as accumulation of cells at G2/M phase incubated for 24 hrs by flow cytometric analysis; type: functional, cell-based; conditions: dose 1-10 µM
MV4-11 [22] = test: Induction of apoptosis in human MV4-11 cells assessed as viable cells at 5 uM incubated for 48 hrs by Annexin V/PI staining based flow cytometric analysis (reference value: […]); type: functional; conditions: read-out: Activity
[23] = molecular target: Serine/threonine-protein kinase AKT (Homo sapiens) (UniProt P31751+Q9Y243+P31749); test: Inhibition of AKT phosphorylation in human MV4-11 cells incubated for 4 hrs by Western blot analysis; type: cell-based; conditions: dose 1-10 µM
Serine/threonine-protein kinase AKT (Homo sapiens), sequence (P31749 whole entry, looked up): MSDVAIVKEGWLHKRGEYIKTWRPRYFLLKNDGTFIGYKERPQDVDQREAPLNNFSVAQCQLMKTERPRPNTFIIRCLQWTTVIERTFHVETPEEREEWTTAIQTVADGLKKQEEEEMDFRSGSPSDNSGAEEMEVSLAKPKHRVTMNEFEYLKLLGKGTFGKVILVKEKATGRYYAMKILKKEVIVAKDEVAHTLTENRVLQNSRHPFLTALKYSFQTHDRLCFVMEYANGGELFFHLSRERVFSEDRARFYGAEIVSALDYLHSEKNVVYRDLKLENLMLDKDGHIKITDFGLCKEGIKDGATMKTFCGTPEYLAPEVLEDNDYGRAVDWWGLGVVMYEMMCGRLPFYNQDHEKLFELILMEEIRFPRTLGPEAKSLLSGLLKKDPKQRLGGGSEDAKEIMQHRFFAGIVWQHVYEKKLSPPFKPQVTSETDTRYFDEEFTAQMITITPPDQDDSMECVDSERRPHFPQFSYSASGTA
Serine/threonine-protein kinase AKT (Homo sapiens), sequence (P31751 whole entry, looked up): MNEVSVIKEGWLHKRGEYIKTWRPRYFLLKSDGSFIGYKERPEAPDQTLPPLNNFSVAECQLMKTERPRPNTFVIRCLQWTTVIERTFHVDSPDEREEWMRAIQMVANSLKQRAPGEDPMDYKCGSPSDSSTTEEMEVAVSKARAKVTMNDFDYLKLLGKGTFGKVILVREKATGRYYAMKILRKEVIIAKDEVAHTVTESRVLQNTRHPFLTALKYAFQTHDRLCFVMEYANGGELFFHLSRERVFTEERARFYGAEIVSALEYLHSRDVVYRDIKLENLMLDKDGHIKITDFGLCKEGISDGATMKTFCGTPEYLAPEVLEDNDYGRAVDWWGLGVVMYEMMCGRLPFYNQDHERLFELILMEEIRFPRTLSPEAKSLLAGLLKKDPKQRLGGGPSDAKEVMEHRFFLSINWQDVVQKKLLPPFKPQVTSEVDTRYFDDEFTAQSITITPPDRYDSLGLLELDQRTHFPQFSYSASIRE
Serine/threonine-protein kinase AKT (Homo sapiens), sequence (Q9Y243 whole entry, looked up): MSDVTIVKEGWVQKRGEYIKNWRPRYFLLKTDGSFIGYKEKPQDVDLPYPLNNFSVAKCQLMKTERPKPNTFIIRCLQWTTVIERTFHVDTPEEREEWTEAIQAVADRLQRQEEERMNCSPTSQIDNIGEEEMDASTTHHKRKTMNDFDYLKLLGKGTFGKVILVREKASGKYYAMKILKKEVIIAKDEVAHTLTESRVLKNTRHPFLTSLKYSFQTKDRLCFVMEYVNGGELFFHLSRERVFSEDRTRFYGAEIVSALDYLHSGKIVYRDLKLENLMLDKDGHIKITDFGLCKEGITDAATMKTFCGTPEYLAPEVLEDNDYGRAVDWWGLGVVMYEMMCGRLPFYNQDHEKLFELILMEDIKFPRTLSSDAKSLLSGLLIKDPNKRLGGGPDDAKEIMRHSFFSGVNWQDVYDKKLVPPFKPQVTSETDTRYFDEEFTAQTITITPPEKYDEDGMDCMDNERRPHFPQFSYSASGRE

MV4-11 [24] = test: Induction of apoptosis in human MV4-11 cells assessed as late apoptotic cells at 1 uM incubated for 48 hrs by Annexin V/PI staining based flow cytometric analysis (reference value: 2.82%); type: functional
MV4-11 [25] = test: Induction of apoptosis in human MV4-11 cells assessed as necrotic cells at 3 uM incubated for 48 hrs by Annexin V/PI staining based flow cytometric analysis (reference value: 0.060%); type: functional
[26] = molecular target: Phosphatidylinositol 4,5-bisphosphate 3-kinase catalytic subunit alpha isoform (Homo sapiens, UniProt P42336); test: Inhibition of PI3Kalpha (unknown origin)
Phosphatidylinositol 4,5-bisphosphate 3-kinase catalytic subunit alpha isoform, sequence (P42336 whole entry, canonical isoform): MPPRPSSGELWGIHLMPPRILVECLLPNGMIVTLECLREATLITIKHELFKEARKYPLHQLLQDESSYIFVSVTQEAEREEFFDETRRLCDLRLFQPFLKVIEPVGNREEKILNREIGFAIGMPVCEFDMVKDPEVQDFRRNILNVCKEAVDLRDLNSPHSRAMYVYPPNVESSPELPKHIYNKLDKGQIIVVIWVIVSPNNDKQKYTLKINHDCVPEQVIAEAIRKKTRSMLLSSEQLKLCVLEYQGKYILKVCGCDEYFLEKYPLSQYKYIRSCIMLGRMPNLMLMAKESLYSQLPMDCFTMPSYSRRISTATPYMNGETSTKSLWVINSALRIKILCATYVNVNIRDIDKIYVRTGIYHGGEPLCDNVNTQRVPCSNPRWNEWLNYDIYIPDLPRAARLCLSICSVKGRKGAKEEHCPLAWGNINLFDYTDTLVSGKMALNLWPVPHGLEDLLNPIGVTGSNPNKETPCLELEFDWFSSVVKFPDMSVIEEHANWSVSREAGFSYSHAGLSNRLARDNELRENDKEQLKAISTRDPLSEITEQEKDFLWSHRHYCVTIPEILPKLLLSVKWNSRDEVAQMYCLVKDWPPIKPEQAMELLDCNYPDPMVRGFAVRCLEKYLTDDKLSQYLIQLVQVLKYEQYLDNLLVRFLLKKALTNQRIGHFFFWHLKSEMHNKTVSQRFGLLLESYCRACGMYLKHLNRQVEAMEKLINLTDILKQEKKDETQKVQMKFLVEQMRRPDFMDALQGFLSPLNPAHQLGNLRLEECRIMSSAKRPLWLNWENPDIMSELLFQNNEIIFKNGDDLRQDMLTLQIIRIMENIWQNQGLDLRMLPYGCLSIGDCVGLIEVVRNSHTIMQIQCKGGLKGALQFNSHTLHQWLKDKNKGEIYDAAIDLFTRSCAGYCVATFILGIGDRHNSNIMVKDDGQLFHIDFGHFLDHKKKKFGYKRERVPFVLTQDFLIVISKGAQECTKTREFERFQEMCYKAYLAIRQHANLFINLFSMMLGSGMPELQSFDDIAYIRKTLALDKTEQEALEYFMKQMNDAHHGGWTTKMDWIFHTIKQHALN

MV4-11 [27] = test: Induction of apoptosis in human MV4-11 cells assessed as necrotic cells at 5 uM incubated for 48 hrs by Annexin V/PI staining based flow cytometric analysis (reference value: 0.060%); type: functional
MV4-11 [28] = test: Induction of apoptosis in human MV4-11 cells assessed as viable cells at 1 uM incubated for 48 hrs by Annexin V/PI staining based flow cytometric analysis (reference value: […]); type: functional; conditions: read-out: Activity

pIC50 [1]: < 4.30
SMILES: Cc1ncc(-c2ccc(N)nc2)cc1N

pIC50 [1]: < 4.30
SMILES: Nc1ccc(-c2cnc(Cl)c(F)c2)cn1

pIC50 [1]: 4.49
SMILES: Nc1ccc(-c2cnc(Cl)c(N)c2)cn1

pIC50 [1]: < 4.30
SMILES: N#Cc1cc(-c2ccc(N)nc2)cnc1Cl

pIC50 [1]: < 4.30
SMILES: Nc1ccc(-c2cnc(F)c(N)c2)cn1

Second part, the compound before the results:

SMILES: Cc1ccc(S(=O)(=O)Nc2cc(-c3ccc(N)nc3)cnc2Cl)cc1
pIC50 [1]: 7.39

SMILES: COc1ncc(-c2ccc(N)nc2)cc1N
pIC50 [1]: < 4.30

SMILES: CC(C)(C)c1ccc(S(=O)(=O)Nc2cc(-c3ccc(N)nc3)cnc2Cl)cc1
pIC50 [1]: 7.51

SMILES: CN(c1cc(-c2ccc(N)nc2)cnc1Cl)S(=O)(=O)c1ccccc1
pIC50 [1]: 4.95

SMILES: Oc1cccc(-c2nc(N3CCOCC3)c3oc4ncccc4c3n2)c1 [PI-103]
pIC50 (EOL1): 5.80
pIC50 (MV4-11 [2]): 7.27
pIC50 [3]: 7.24
pIC50 (HL-60): 7.05
pIC50 (KG-1): 7.06

SMILES: Nc1ccc(-c2cnc(Cl)c(NS(=O)(=O)c3ccc(F)cc3)c2)cn1
pIC50 [1]: 7.01

SMILES: CC[C@H](Nc1ncnc2[nH]cnc12)c1nc2cccc(F)c2c(=O)n1-c1ccccc1 [IDELALISIB]
pIC50 (EOL1): < 4.30
pIC50 (MV4-11 [2]): 5.37
pIC50 [3]: 4.88
pIC50 (HL-60): 6.32
pIC50 (KG-1): 4.82

SMILES: COCCNC(=O)Nc1ccc(-c2cnc(Cl)c(NS(=O)(=O)c3ccccc3)c2)cn1
Ratio IC50 (Homo sapiens [4]): 8
viability at 10 µM (MV4-11 [5]): 57.4%
viability at 3 µM (MV4-11 [6]): 94%
Activity (MV4-11 [7]): 1.92%
pIC50 (EOL1): 4.80
Activity (MV4-11 [8]): 1.2%
pIC50 (MV4-11 [2]): 5.43
Ratio IC50 (Homo sapiens [9]): 8
Activity (MV4-11 [10]): 10.9%
Ratio IC50 (Homo sapiens [11]): 8
Activity (MV4-11 [12]): 11.3%
Activity (MV4-11 [13]): 28.1%
Activity (MV4-11 [14]): 3.85%
pIC50 [15]: 6.61
Activity (MV4-11 [16]): 3.21%
pIC50 [1]: 7.52
pIC50 [17]: 6.53
Activity (MV4-11 [18]): 0.1%
pIC50 [3]: 5.59
Activity (MV4-11 [19]): 1.47%
Activity (MV4-11 [20]): 4.18%
pIC50 (HL-60): 5.06
Activity (MV4-11 [21]): Dose-Dependent Effect
viability at 5 µM (MV4-11 [22]): 85.5%
inhibition [23]: Dose-Dependent Effect
Activity (MV4-11 [24]): 2.65%
Activity (MV4-11 [25]): 0.335%
pIC50 [26]: 6.54
pIC50 (KG-1): 4.72
Activity (MV4-11 [27]): 1.69%
viability at 1 µM (MV4-11 [28]): 96%
